Assay results: patent US12371454B2, “Cyclic peptide compound having Kras inhibitory action” (priority 2019, dated 2025)
Starred links: 1 amine or outer side, 2 acyl side, 3 side chain; linkers in the order of their positions; H or OH if unused. Positions of bridges follow the written chain, without caps; N, C: chain ends. Non-standard residues stand in square brackets, D forms with d. Residues, ends and D or L forms follow the SMILES beside them. *: point of attachment. hPhe(3,5-F2-4-CF3) = N[C@@H](CCc1cc(F)c(C(F)(F)F)c(F)c1)C(=O)O; hPhe(3-Cl-4-CF3) = N[C@@H](CCc1ccc(C(F)(F)F)c(Cl)c1)C(=O)O; NMeDab(N,N-(CH2CF2CH2)) = CN[C@@H](CCN1CC(F)(F)C1)C(=O)O; hPhe(3-F,4-CF3) = N[C@@H](CCc1ccc(C(F)(F)F)c(F)c1)C(=O)O; NMePhe(4-CF3) = CN[C@@H](Cc1ccc(C(F)(F)F)cc1)C(=O)O; NMeAla(4-thiazolyl) = CN[C@@H](Cc1cscn1)C(=O)O; X46 = COc1cncc(C[C@@H](C(=O)[*:2])N(C)[*:1])c1; NMePhe(4-Me) = CN[C@@H](Cc1ccc(C)cc1)C(=O)O; NMedβ3hAla = C[C@H](CC(=O)[*:2])N(C)[*:1]; NMeGly(cPent) = CN[C@H](C(=O)O)C1CCCC1; Pro(4,4-F2) = O=C(O)[C@@H]1CC(F)(F)CN1; NMeCha = CN[C@@H](CC1CCCCC1)C(=O)O; NMeChg = CN[C@H](C(=O)O)C1CCCCC1; NMeI = CC[C@H](C)[C@H](NC)C(=O)O; NMeD = CN[C@@H](CC(=O)O)C(=O)O; NMeL = CN[C@@H](CC(C)C)C(=O)O; Cba = N[C@@H](CC1CCC1)C(=O)O; NMeV = CN[C@H](C(=O)O)C(C)C; dNMeS = CN[C@H](CO)C(=O)O; NMeA = CN[C@@H](C)C(=O)O; Piperidide = C1CCN(*)CC1; Ac5c = NC1(C(=O)O)CCCC1; Aze = O=C(O)[C@@H]1CCN1; Ac4c = NC1(C(=O)O)CCC1; NPrGly = CCCNCC(=O)O; Sar = CNCC(=O)O; Propyl = CCC*

Each compound was assayed against T1, Kras and SOS1 (biotin-tagged human Kras loaded with GDP, His-tagged human SOS1) (Homo sapiens, UniProt P01116, G12D) (assay: Protein-protein interaction inhibition between Kras and SOS1 (KrasGl2D-SOS PPI) using AlphaScreen). Settings: AlphaScreen; biotin-tagged human Kras loaded with GDP, His-tagged human SOS1; read-out: KRAS G12D-SOS PPI IC50.
T1 construct: made in house; host or cells: E. coli (stated for Kras only)
Type: binding
Procedure, shortened: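 AlphaScreen format: Ni donor beads capture His-SOS1, streptavidin acceptor beads capture biotinylated Kras (E. coli-expressed, GDP-loaded post-purification). Excite 680 nm, read 520-620 nm.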

T1 sequence (P01116 1-188 isoform P01116-2 G12D): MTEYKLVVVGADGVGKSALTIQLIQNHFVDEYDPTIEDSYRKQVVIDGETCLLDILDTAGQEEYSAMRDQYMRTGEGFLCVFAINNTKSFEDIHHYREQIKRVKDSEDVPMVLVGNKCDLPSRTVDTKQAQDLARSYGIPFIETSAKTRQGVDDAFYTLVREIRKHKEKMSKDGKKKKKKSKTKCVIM

| Structure (SMILES) | IC50 [nM] |
| --- | --- |
| CC[C@H](C)[C@@H]1NC(=O)[C@H](CC(C)C)N(C)C(=O)C[C@@H](C(=O)N2CCCCC2)N(C)C(=O)[C@H](C(C)C)N(C)C(=O)C2(CCCC2)NC(=O)[C@@H](CO)N(C)C(=O)[C@H](CCc2ccc(C(F)(F)F)c(Cl)c2)NC(=O)CN(C)C(=O)[C@H](CC2CCCCC2)N(C)C(=O)[C@@H]2CCN2C(=O)[C@H](C)N(C)C1=O [Compound 1444] ([NMeL]I[NMeA][Aze][NMeCha][Sar][hPhe(3-Cl-4-CF3)][dNMeS][Ac5c][NMeV][NMeD]-Piperidide; lactam N-11) | 8.8 |
| CC[C@H](C)[C@@H]1NC(=O)[C@H](CC(C)C)N(C)C(=O)C[C@@H](C)N(C)C(=O)[C@H](C2CCCC2)N(C)C(=O)C2(CCCC2)NC(=O)[C@@H]2CC(F)(F)CN2C(=O)[C@H](CCc2cc(F)c(C(F)(F)F)c(F)c2)NC(=O)CN(C)C(=O)[C@H](CC2CCCCC2)N(C)C(=O)CN(C)C(=O)CN(C)C1=O [Compound 198] (cyclo([Ac5c][NMeGly(cPent)][NMedβ3hAla][NMeL]I[Sar][Sar][NMeCha][Sar][hPhe(3,5-F2-4-CF3)][Pro(4,4-F2)])) | 8.5 |
| CC[C@H](C)[C@@H]1NC(=O)[C@H](CC(C)C)N(C)C(=O)C[C@@H](C(=O)N(C)C)N(C)C(=O)[C@H]([C@@H](C)CC)N(C)C(=O)[C@H](C)NC(=O)[C@H](Cc2cscn2)N(C)C(=O)[C@H](CCc2ccc(C(F)(F)F)c(Cl)c2)NC(=O)CN(C)C(=O)[C@H](Cc2ccc(C)cc2)N(C)C(=O)[C@@H]2CCN2C(=O)[C@H](C)N(C)C1=O [Compound 856] ([NMeL]I[NMeA][Aze][NMePhe(4-Me)][Sar][hPhe(3-Cl-4-CF3)][NMeAla(4-thiazolyl)]A[NMeI][NMeD]-NMe2; lactam N-11) | 14 |
| CCCOC[C@@H]1NC(=O)[C@H](CCN2CC(F)(F)C2)N(C)C(=O)[C@H](CCc2ccc(C(F)(F)F)c(Cl)c2)NC(=O)CN(C)C(=O)[C@H](CC2CCCCC2)N(C)C(=O)[C@@H]2CCN2C(=O)[C@H](C)N(C)C(=O)[C@H]([C@@H](C)CC)NC(=O)[C@H](CC(C)C)N(C)C(=O)C[C@@H](C(=O)N(C)C)N(C)C(=O)[C@H](C2CCCC2)N(C)C1=O [Compound 817] ([NMeL]I[NMeA][Aze][NMeCha][Sar][hPhe(3-Cl-4-CF3)][NMeDab(N,N-(CH2CF2CH2))]S(Propyl)[NMeGly(cPent)][NMeD]-NMe2; lactam N-11) | 15 |
| CC[C@H](C)[C@@H]1NC(=O)[C@H](C)N(C)C(=O)C[C@@H](C(=O)N2CCCCC2)N(C)C(=O)[C@H](C(C)C)N(C)C(=O)C2(CCCC2)NC(=O)[C@@H]2CCCN2C(=O)[C@H](CCc2ccc(C(F)(F)F)c(F)c2)NC(=O)CN(C)C(=O)[C@H](CC2CCCCC2)N(C)C(=O)CN(C)C(=O)CN(C)C1=O [Compound 266] ([NMeA]I[Sar][Sar][NMeCha][Sar][hPhe(3-F,4-CF3)]P[Ac5c][NMeV][NMeD]-Piperidide; lactam N-11) | 4.6 |
| CC[C@H](C)[C@@H]1NC(=O)[C@H](CC(C)C)N(C)C(=O)C[C@@H](C)N(C)C(=O)[C@H](C2CCCCC2)N(C)C(=O)C2(CCC2)NC(=O)[C@@H]2CC(F)(F)CN2C(=O)[C@H](CCc2ccc(C(F)(F)F)c(Cl)c2)NC(=O)CN(C)C(=O)[C@H](Cc2ccc(C(F)(F)F)cc2)N(C)C(=O)CN(C)C(=O)CN(C)C1=O [Compound 750] (cyclo([Ac4c][NMeChg][NMedβ3hAla][NMeL]I[Sar][Sar][NMePhe(4-CF3)][Sar][hPhe(3-Cl-4-CF3)][Pro(4,4-F2)])) | 28 |
| CCCN1CC(=O)N(C)[C@@H]([C@@H](C)CC)C(=O)N(C)[C@H](C(=O)N(C)C)CC(=O)N(C)[C@@H](CC(C)C)C(=O)N[C@@H]([C@@H](C)CC)C(=O)N(C)[C@@H](C)C(=O)N2CC[C@H]2C(=O)N(C)[C@@H](Cc2ccc(C)cc2)C(=O)N(C)CC(=O)N[C@@H](CCc2ccc(C(F)(F)F)c(Cl)c2)C(=O)N2CCC[C@H]2C1=O [Compound 1131] ([NMeL]I[NMeA][Aze][NMePhe(4-Me)][Sar][hPhe(3-Cl-4-CF3)]P[NPrGly][NMeI][NMeD]-NMe2; lactam N-11) | 13 |
| CC(C)C[C@H]1C(=O)N[C@@H](CC2CCC2)C(=O)N(C)CC(=O)N(C)CC(=O)N(C)[C@@H](CC2CCCCC2)C(=O)N(C)CC(=O)N[C@@H](CCc2ccc(C(F)(F)F)c(Cl)c2)C(=O)N2CCC[C@H]2C(=O)NC2(CCCC2)C(=O)N(C)[C@@H](C2CCCCC2)C(=O)N(C)[C@H](C(=O)N2CCCCC2)CC(=O)N1C [Compound 1759] ([NMeL][Cba][Sar][Sar][NMeCha][Sar][hPhe(3-Cl-4-CF3)]P[Ac5c][NMeChg][NMeD]-Piperidide; lactam N-11) | 2.7 |
| CC[C@H](C)[C@@H]1NC(=O)[C@H](CC(C)C)N(C)C(=O)C[C@@H](C(=O)N2CCCCC2)N(C)C(=O)[C@H](C2CCCCC2)N(C)C(=O)C2(CCCC2)NC(=O)[C@H](Cc2cncc(OC)c2)N(C)C(=O)[C@H](CCc2ccc(C(F)(F)F)c(Cl)c2)NC(=O)CN(C)C(=O)[C@H](CC2CCCCC2)N(C)C(=O)[C@@H]2CCN2C(=O)CN(C)C1=O [Compound 770] ([NMeL]I[Sar][Aze][NMeCha][Sar][hPhe(3-Cl-4-CF3)][X46][Ac5c][NMeChg][NMeD]-Piperidide; lactam N-11) | 20 |
